Measurements reported in patent US20220119447A1, “PEPTIDE AND FOR TREATING INFLAMMATORY DISEASE AND PAIN USING THE SAME” (PELL BIO-MED TECHNOLOGY CO., LTD., priority 2019, published 2022).
Non-standard residues stand in square brackets, D forms with d. Residues, ends and D or L forms follow the SMILES beside them. pGlu = O=C1CC[C@@H](C(=O)O)N1

Key:
[1] = tested on: CFA-induced arthritis ICR mice; experiment: Paw withdraw threshold (von Frey Filament) over time after single oral administration in CFA-induced arthritis mice; conditions: for time after administration of best antinociceptive effect: oral, peptide 3 mg/kg, morphine 10 mg/kg, PWT at 0, 30, 60, 90, 120 min, effect started to decrease at 120 min
TNF-α = experiment: Serum TNF-α by ELISA in CFA-induced arthritis mice after weekly oral administration; format: in vivo; conditions: 3 mg/kg oral once a week, 4th to 12th week; serum on 12th week; FIG. 1
Description: (§1) On the other hand, the mice administered with water were served as the control group, which also comprised 6 mice. The mice in the experimental group and the control group were sacrificed on the 12th week after administration. The serum collection is conducted by cardiac puncture. The Mouse TNF-α Quantikine ELISA Kit (R&D System, MTA00B), Mouse IL-6 Quantikine ELISA Kit (R&D System, M600B) and enzyme-linked immunosorbent assay (ELISA) were used to determine and collect the serum concentration of TNF-α and IL-6 of mice in the experimental group and the control group.

IL-6 = experiment: Serum IL-6 by ELISA in CFA-induced arthritis mice after weekly oral administration; format: in vivo; conditions: 3 mg/kg oral once a week, 4th to 12th week; serum on 12th week; vs control group; FIG. 2
Description: as §1

[2] = tested on: CFA-induced arthritis ICR mice; experiment: Paw withdraw threshold (von Frey Filament) on weekly oral administration, 4th to 12th week, in CFA-induced arthritis mice; format: in vivo; conditions: 1 mg/kg oral once a week, 90 min after administration, increased from 0.4 g at 3rd week, FIG. 6
Description: Two dosage groups both contained 6 mice. […] The control group also contained 6 mice.

[3] = tested on: CFA-induced arthritis ICR mice; experiment: Paw withdraw threshold (von Frey Filament) after low oral doses (μg/kg) in CFA-induced arthritis mice; format: in vivo; conditions: 90 min after administration; for PWT value of ipsilateral hind paw: rose from 0.065 g, FIG. 7; for PWT value of contralateral paw: rose from 0.32 g, FIG. 8
Description: Every dosage group contained 6 mice.

C57BL/6JNarl male mice [4] = experiment: Acid-induced abdominal constriction (writhing) assay; format: in vivo; conditions: oral doses of 1 μg/kg and 10 mg/kg, among 0.1 μg/kg to 10 mg/kg tested; 10 min before 1% acetic acid; FIG. 9
Description: (§2) For conducting nociceptive pain and acid-induced chronic widespread pain experiments, C57BL/6JNarl male mice (20 to 25 g) were housed in an environment with temperature control (24±0.5° C.) and 12-hour light-dark cycle (lights on during 08:00-20:00) and allowed free access to standard laboratory food and tap water. Animals were allowed to acclimatize for 20 to 30 min prior to experimental manipulations. Animal care and handling procedures were adopted in accordance with the International Association for the Study of Pain guidelines for those animals used in pain research, and the procedures were approved by the Committee for Ethics in Animal Research.
Acid-induced abdominal constriction assay was performed in accordance with H. O. Collier, L. C. Dinneen, C. A. Johnson, C. Schneider, The abdominal constriction response and its suppression by analgesic drugs in the mouse. Br J Pharmacol Chemother 32, 295-310 (1968). In general, the mice from Preparation Example 3 were placed in a small observation chamber and habituated for 20 min. […] The numbers of abdominal constrictions in 30 min after acid injection were counted and the mean constriction numbers of mice of each group were calculated. […]

C57BL/6JNarl male mice [5] = experiment: Radiant heat tail-flick test; format: in vivo; conditions: oral doses of 0.1 μg/kg, 0.3 μg/kg, 0.1 mg/kg, 1 mg/kg, 3 mg/kg and 10 mg/kg, among 0.01 μg/kg to 10 mg/kg tested; mean latency 10-90 min; FIG. 9
Description: as §2
The radiant heat tail-flick test was modified in accordance with F. E. D'Amour, D. L. Smith, A method for determining loss of pain sensation. The Journal of Pharmacology and Experimental Therapeutics 72, 74-79 (1941). The 5 to 12 mice from Preparation Example 3 were placed and acclimatized in the restrainers for 30 min prior to the tail-flick test. […] The latency was recorded every 10 min during the indicated time period (10-90 min) after oral administration with different dosages of the peptide of SEQ ID NO: 1 (0.01 μg/kg, 0.03 μg/kg, 0.1 μg/kg, 0.3 μg/kg, 1 μg/kg, 0.01 mg/kg, 0.1 mg/kg, 1 mg/kg, 3 mg/kg, and 10 mg/kg). Then the mean latency during 10-90 min was calculated. […]

Row | Compound | time after administration of best antinociceptive effect [1] | serum concentration of TNF-α (TNF-α) | serum concentration of IL-6 (IL-6) | PWT value of contralateral paw [2] | PWT value of ipsilateral hind paw ([3]; 0.3 μg/kg oral) | PWT value of contralateral paw ([3]; 0.3 μg/kg oral) | PWT value of ipsilateral hind paw ([3]; 1 μg/kg oral) | PWT value of contralateral paw ([3]; 1 μg/kg oral) | PWT value of ipsilateral hind paw ([3]; 3 μg/kg oral) | PWT value of contralateral paw ([3]; 3 μg/kg oral) | antinociceptive effect in the acid-induced writhing experiment (C57BL/6JNarl male mice [4]) | antinociceptive effect in the radiant heat tail-flick test (C57BL/6JNarl male mice [5]) | antinociceptive effect compared with morphine ([1]; peptide 3 mg/kg oral vs morphine 10 mg/kg oral, a lower amount was required) | PWT value of ipsilateral hind paw ([1]; peptide 3 mg/kg oral, at 90 min, rose from 0.07 g, FIG. 3) | PWT value of contralateral paw ([1]; peptide 3 mg/kg oral, at 90 min, rose from 0.5±0.047 g, FIG. 4)
1 | CN1CC[C@]23c4c5ccc(O)c4O[C@H]2[C@@H](O)C=C[C@H]3[C@H]1C5 [morphine, reference compound] | 90 min | – | – | – | – | – | – | – | – | – | – | – | – | – | –
2 | CC(C)[C@H](NC(=O)[C@H](C)NC(=O)[C@@H](NC(=O)[C@H](CCC(=O)O)NC(=O)[C@@H]1CCC(=O)N1)[C@@H](C)O)C(=O)N[C@@H](CO)C(=O)N[C@@H](CO)C(=O)N[C@@H](Cc1c[nH]cn1)C(=O)N[C@@H](CCC(=O)O)C(=O)N[C@@H](CCC(N)=O)C(=O)N[C@@H](CC(=O)O)C(=O)O [peptide of SEQ ID NO: 1, Glp Glu Thr Ala Val Ser Ser His Glu Gln Asp] ([pGlu]ETAVSSHEQD-OH) | 90 min | not detected | decreased compared to the control group | 0.6˜1.2 g | 1 g | 1 g | 0.6 g | 1.4 g | 0.16 g | 1 g | best antinociceptive effect | best antinociceptive effect | antinociceptive effect similar to morphine | 0.9 ± 0.156 g | 1.35 ± 0.193 g
